The values below come from US20070225213A1, “Nucleic acid carriers for delivery of therapeutic agents” (priority 2006, published 2007).

Series [1] relates to COS7. Kind of series: Cell uptake by MTN fluorescence EX620/EM680 (Examples 10 and 13, EX051605). The format is cell-based, green monkey. The conditions noted are these: 10% w/w loading in DNA. The procedure:
Materials: HSGDNA, MTN, ODNAS1116 (phosphorothioated, single stranded DNA, and Beta-cyclodextrin polymer (BCD-SBE, KKBIOMED Inc.) were previously prepared in water at 10 mg/ml, 1 mg/ml, 0.95 mg/ml, and 10 mg/ml respectively.
Procedure: For NAC-MTN, combined 37 ul HSGDNA (herring genomic DNA, Promega Inc.), 1426 ul HBSS( Hank's buffered saline, Sigma-Aldrich), with 37 ul of MTN, followed by 1500 ul 2× DMEM media to give 3 ml final and 24 uM (24 micro-molar) MTN and 10% w/w drug loading of MTN. For NAC-MTN (AR1505) combined 62 ul of HSDNA (deg. herring sperm DNA, Sigma) with 2377 ul HBSS, 61.7 ul MTN, 2500 ul 2× media to give 5 ml final and 24 uM MTN and 10% w/w drug loading of MTN to HSDNA. […]
Plate#1 Media was aspirated and cells treated with 100 ul of either NAC-MTN, CD-MTN, or MTN at 24 uM MTN final or 12.3 ug/ml MTN in all samples. Samples containing MTN were incubated 4 hours, removed, and fluorescence taken at EX620/EM680. […]
Samples were incubated 4 hours, removed, and MTN fluorescence taken at EX620/EM680. […] Average MTN fluorescence was averaged from 6 wells. For each cell type, MTN fluorescence was highest in MTN treated cells, followed by CD-MTN, and lowest in NAC-MTN. […]
PLATE#2: Dispensed 50 ul from source plate into plate #2 to give 150 ul final vol 4.1 ug/ml, 8 uMfinal per well, pre-read fluorescence w samples (bkgd) incubated 5 hr, removed, replaced w/ media, read fluor. […]

In series [2] the test system is MCF7. The series is described as follows: Effect of plating time on uptake of NAC-MTN and MTN, fluorescence (Example 11). The format is cell-based, human. Here is the method: The effect of plating time on the differential rates of uptake between NAC-MTN and MTN were assayed in cells treated <1 hour and 24 hours after plating.
On day 1, MCF7, COS7, 3T3, and BHK21 cells were plated out in a standard tissue culture plate. After incubation of 20 minutes samples were added to cells in rows A, C, E, and G. Cells were incubated at 37C in a standard atmosphere of 5%CO2.
On day 2, samples were added to rows D, F, and H and the fluorescence was obtained EX620/EM680 S=80. Samples were removed from A,C,E and G, replaced with media and fluorescence read again. On day 2 observed significant drug toxicity in cells of rows A,C, E, G. Sample addition was postponed in row B since MCF7 were not yet confluent.
On day 3, added samples to cells in row B containing confluent MCF7's, removed samples from rows D, F, and H replaced with media and read fluorescence.
Fluorescence data from cells taken after removal of media was used to quantitate total MTN retained in the cells. Fluorescence data were converted to mg/ml MTN using a standard curve prepared with free MTN or NAC-MTN.
The percentage difference in fluorescence between cells treated with NAC-MTN or MTN alone was used to compare relative drug uptake.
The MTN fluorescence ratios were obtained by dividing MTN fluorescence of cells incubated for 24 hours by fluorescence of cells incubated 30 minutes. […] The uptake in BHK21 was roughly equivalent for NAC-MTN regardless of plate adherence, however it should be noted that BHK21 adhere very rapidly to the plate.
Fluorescence data were converted to micromolar drug concentrations (uM MTN) using a standard curve for either nucleic acid bound or unbound drug, and drug uptake ratios were obtained by dividing the t(24 hour)/t(30 min.). The ratios of absolute drug concentration per well show more dramatic differences in uptake as shown below.

The conditions of series [3]: intravenous administration; cited from earlier work.
Series [4] can be described thus: In vivo MTN recovery in mouse urine after single i.v. dose (Example 17).
Procedure: NAC-MTN or MTN alone was administered intravenously to mice via the tail vein. […] After 2 hours, NAC-MTN or MTN was detected in urine, quantified by absorbance at 665 nm, and reported as % of total.
Procedure. […] White mice, n=2 were tail vein injected with 0.25 ml of either NAC-MTN or MTN alone. […] MTN was quantified in mouse urine by absorbance of 0.2 ml sample at 665 nm, and converted to mg/ml using an MTN standard curve.
To determine if NAC-MTN was excreted in urine as a complex, MTN fluorescence due to unbound NAC was assayed by an addition method. DNA was added to urine from both groups and subsequent change in fluorescence was measured.
The mark [5] stands for this setting: Elapsed Time 2.5 hr, 0.281 mg MTN i.v.

Turning to `O=C1c2c(O)ccc(O)c2C(=O)c2c(NCCNCCO)ccc(NCCNCCO)c21` [MTN, mitoxantrone], the “% reduction in fluorescence relative to MTN alone (MTN = 0%)” value in series [1] (Plate#1, 24 uM MTN, 4 hours) amounted to 0%; in series [1] (Plate#2, 8 uM MTN) it was 0%. Moreover, the “MTN FLUOR Ratio of t(24)/t(<1)” value in series [2] was 0.75. Moreover, the “FLUOR (MTN fluorescence in cells)” value in series [2] (cells treated 24 hour after plating) is on record as 18819; in series [2] (cells treated <1 hour after plating), 16651. For the same molecule, the “Ratio uM MTN of t(24)/t(<1)” value in series [2] (from standard curve for bound or unbound drug) was found to be 1.2. In series [3], the elimination half life is 12 days. For the same molecule, the “FLUOR. (mouse urine)” value in series [4] (setting [5]) came out at 4086; in series [4] (Elapsed Time 5 hr) it was 4405; in series [4] (Elapsed Time 8 hr), 4455. For the same molecule, the “MTN % recov. in urine (% of total dose)” value in series [4] (setting [5]) amounted to 1.9%; in series [4] (Elapsed Time 5 hr) it was 1.6%; in series [4] (Elapsed Time 8 hr), 3.8%.
